For assay [1], the target named is T1, AR protein (Homo sapiens, UniProt P10275).
T1 sequence (P10275 1-920): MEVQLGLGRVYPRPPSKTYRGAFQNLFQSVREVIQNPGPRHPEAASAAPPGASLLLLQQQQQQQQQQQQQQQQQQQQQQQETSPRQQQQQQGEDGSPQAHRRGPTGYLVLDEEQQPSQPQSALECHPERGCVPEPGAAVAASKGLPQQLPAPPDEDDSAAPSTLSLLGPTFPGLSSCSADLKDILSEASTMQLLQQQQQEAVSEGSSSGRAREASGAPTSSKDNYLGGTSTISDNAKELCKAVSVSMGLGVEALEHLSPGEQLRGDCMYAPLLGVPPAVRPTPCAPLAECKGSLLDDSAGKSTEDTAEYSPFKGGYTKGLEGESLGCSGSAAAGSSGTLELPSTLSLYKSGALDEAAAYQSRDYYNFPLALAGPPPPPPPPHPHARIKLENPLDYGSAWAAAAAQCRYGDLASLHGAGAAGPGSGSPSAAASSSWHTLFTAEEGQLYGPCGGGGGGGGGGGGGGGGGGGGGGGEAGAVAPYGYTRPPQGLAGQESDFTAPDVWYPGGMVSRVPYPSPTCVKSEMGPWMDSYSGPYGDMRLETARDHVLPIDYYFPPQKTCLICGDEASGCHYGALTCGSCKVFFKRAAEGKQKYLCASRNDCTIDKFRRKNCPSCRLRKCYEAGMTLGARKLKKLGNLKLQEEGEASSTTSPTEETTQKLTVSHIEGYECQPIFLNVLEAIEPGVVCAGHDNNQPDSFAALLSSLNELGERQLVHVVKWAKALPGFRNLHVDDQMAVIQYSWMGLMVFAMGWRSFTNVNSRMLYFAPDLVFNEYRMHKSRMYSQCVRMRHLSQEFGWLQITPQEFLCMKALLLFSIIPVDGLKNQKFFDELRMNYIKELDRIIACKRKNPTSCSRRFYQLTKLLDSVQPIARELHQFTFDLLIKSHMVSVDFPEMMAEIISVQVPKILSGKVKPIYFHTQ
Particulars: reported in the literature [3]; cited from earlier work.

In assay [2] the target is T2, AR protein (Homo sapiens, UniProt P10275, T878A).
T2 construct: C4-2B cells were treated with peptides (10 micro-M) for 24 h as indicated, and AR protein levels were assessed by western blots; endogenous in cells; host or cells: C4-2B
T2 sequence (P10275 1-920 T878A): T1 sequence (P10275 1-920) with T878A
Description: AR protein level by western blot in C4-2B cells. Type of assay: cell-based. The conditions noted are these: 10 micro-M. On the procedure:
(§1) A. C4-2B cells were treated with peptides (10 micro-M) for 24 h as indicated, and AR protein levels were assessed by western blots. B. C4-2B cells were treated with peptides and harvested for western blot assay with an anti-PARP antibody. Actin blot served as a protein loading control. C. Flow cytometry analysis of subG1/GO cell cycle population in C4-2B cells after peptide treatment (10 micro-M) in 2% charcoal-stripped FBS for 24 h. Data represents two experiments. The asterisk indicates a significant difference compared to the DSMO control (p<0.05, Student t-test).
A. Peptide analogs were synthesized as listed in the top panel. The myristylation sequence was conjugated to the N-terminal of the peptide for penetrating the plasma membrane. B. Prostate cancer C4-2B cells were treated with the agents at a concentration of 10 micro-M for 48 h. Cells were harvested for western blot assay with AR antibody (clone PG21). The Actin blot served as a protein loading control. […]
We further characterized the ARi14 peptide for its core sequence of action. The ARi14 peptide was chopped into two fragments, the 7-mer ARi7 peptide (EAAAYQS) and 8-mer ARi8 peptide ([…]), and their AR degradation inducing ability was compared to the original 14-mer peptide (FIG. 3). These peptides were synthesized with an N-terminal myristylation signal to facilitate cellular uptake. […]
On the technique in general: A western blot detects proteins with antibodies after separation by electrophoresis.

Assay [3] relates to C4-2B cells. Description: Apoptotic cell death by PARP cleavage western blot in C4-2B cells. The format is cell-based. Particulars: N-terminal myristylated peptides. The procedure:
as §1
(§2) We further characterized the ARi14 peptide for its core sequence of action. The ARi14 peptide was chopped into two fragments, the 7-mer ARi7 peptide (EAAAYQS) and 8-mer ARi8 peptide ([…]), and their AR degradation inducing ability was compared to the original 14-mer peptide (FIG. 3). These peptides were synthesized with an N-terminal myristylation signal to facilitate cellular uptake.

Assay [4] deals with C4-2B cells. Description: Flow cytometry analysis of subG1/GO cell cycle population in C4-2B cells. The format is cell-based. Particulars: Enzalutamide-resistant C4-2B cells, 10 micro-M, 24 h, 2% charcoal-stripped FBS. The procedure: as §1, §2
Background: In flow cytometry, cells or beads pass a laser one at a time.

Another assay has as its system LAPC-4 cells. Kind of assay: Cell viability / cell death by microscopic images in LAPC-4 cells. Type of assay: cell-based. Particulars: 10 micro-M, 24 h. The procedure:
(§3) A. ARi14 peptide was fused with the KDM4A CPP sequence via a short link (KDM4A-ARi14). This fused peptide was labeled with FITC fluorescent dye. B. LAPC-4 cells were treated with the solvent, or the peptides as indicated at 10 micro-M in 2% charcoal-striped FBS-supplied media for 24 h. Cellular proteins were subjected to a western blot with an anti-AR antibody (clone PG21). Actin blot served as a protein loading control. C. Microscopic images were shown for cell viability. Note: white arrows indicate a cluster of dying cells loaded with fluorescent-labeled peptides.
(§4) To achieve a better intracellular distribution of the peptide, a cellular penetrating peptide (CPP) derived from the KDM4A protein was fused to the N-terminal of the ARil4 peptide via a short link sequence GGGS (FIG. 2A).

Assay [5] deals with T1, AR protein. Kind of assay: AR protein level by western blot in LAPC-4 cells. Type of assay: cell-based. The conditions noted are these: 10 micro-M, 24 h, 2% charcoal-stripped FBS. The procedure: as §3, §4
Setting [6] is: N-terminal myristylated peptides, 24 h.

Positions count from the first letter of the chain named. Ends that are not written are not given here. * marks the point of attachment. Myristoyl = CCCCCCCCCCCCCC(=O)*

Take `COc1ccc(/C=C/C(=O)/C=C(O)/C=C/c2ccc(OC)c(OC)c2)cc1OC` [ASC-J9]: the “AR protein degradation in prostate cancer cells” value on AR protein [1] is “induced AR protein degradation”.
For the molecule “SRDYYNFP [ARi8, 8-mer fragment of ARi14, synthesized with an N-terminal myristylation signal]”, in the assay with AR protein [2] (setting [6]), the AR reduction worked out at 92%. Besides, the “apoptotic cell death evidenced by PARP cleavage” value in the assay on C4-2B cells [3] is “more profound apoptotic cell death than ARi14”. Moreover, the “cell cycle arrest at the subG1/GO phase” value with C4-2B cells [4] is listed as “induced cell cycle arrest”.
On to “EAAAYQSRDYYNFP [ARi14, decoy peptide derived from the AR N-terminal domain, amino acids 355-368; myristylated form used in b32]”, for which the AR reduction with AR protein [2] (setting [6]) was 78%. Further, in the assay with LAPC-4 cells, the “cell death response / cell viability” value is on record as “no apparent effect”. Also, the AR protein level entry in the assay with AR protein [5] is reported as “no apparent effect”. The “cell cycle arrest at the subG1/GO phase” value in the assay on C4-2B cells [4] was “induced cell cycle arrest”.
In the case of “EAAAYQS [ARi7, 7-mer fragment of ARi14, synthesized with an N-terminal myristylation signal]”, the “impact on the AR protein level” value with AR protein [2] (setting [6]) is reported as “no impact”.
For “ARi10: new analog of ARi8, myristylation sequence at the N-terminal (Myristoyl-YQSRDYYNFP)”, the AR protein levels result with AR protein [2] (myristylated peptides, 48 h) is “largely reduced”.

The values are drawn from patent US20250092093A1, “Androgen receptor protein degradation-inducing peptides for prostate cancer treatment” (priority 2023, published 2025).
